The target of one data set is T1, human A1 receptors (Homo sapiens, UniProt P30542).
T1 construct: expressed in transfected cells; host or cells: CHO cells
T1 sequence (P30542 1-326): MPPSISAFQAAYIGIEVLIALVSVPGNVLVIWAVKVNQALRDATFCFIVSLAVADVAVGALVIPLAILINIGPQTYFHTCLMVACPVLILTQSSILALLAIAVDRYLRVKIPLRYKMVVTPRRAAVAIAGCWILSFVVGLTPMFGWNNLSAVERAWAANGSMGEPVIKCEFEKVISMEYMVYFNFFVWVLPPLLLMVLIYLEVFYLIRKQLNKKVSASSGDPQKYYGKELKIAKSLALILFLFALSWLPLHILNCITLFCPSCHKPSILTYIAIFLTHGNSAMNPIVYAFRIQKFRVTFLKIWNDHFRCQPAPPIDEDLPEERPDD
The data set is described as follows: [^3H] DPCPX binding to human A1 receptors expressed in CHO cells (antagonist radioligand). The settings on record: human A1, CHO cells, antagonist radioligand; read-out: [^3H] DPCPX binding to human A1 receptors expressed in CHO cells Ki. The procedure:
Binding assay methodology for the human data with antagonist radioligands. […] Arch. […] The cells were grown adherently and maintained in Dulbecco's Modified Eagles Medium with nutrient mixture F12 (DMEM/F12) without nucleosides, containing 10% fetal calf serum, penicillin (100 U/ml), streptomycin (100 μg/ml), L-glutamine (2 mM) and Geneticin (G418, 0.2 mg/ml) at 37° C. in 5% CO2/95% air. Cells were split 2 or 3 times weekly at a ratio between 1:5 and 1:20. For membrane preparation the culture medium was removed and the cells were washed with PBS and scraped off T75 flasks in ice-cold hypotonic buffer (5 mM Tris HCl, 2 mM EDTA, pH 7.4). The cell suspension was homogenized with Polytron and the homogenate was spun for 10 min at 1,000×g. The supernatant was then centrifuged for 30 min at 100,000×g. The membrane pellet was resuspended in 50 mM Tris HCl buffer pH 7.4 (for A3 adenosine receptors: 50 mM Tris HCl, 10 mM MgCl2, 1 mM EDTA) and incubated with 3 UI/ml of Adenosine deaminase for 30 min at 37° C. Then the suspension was frozen at −80° C. HEK 293 cells transfected with the human recombinant A2B adenosine receptor were obtained from Receptor Biology, Inc. (Beltsville, Md., USA).
Displacement experiments were performed for 120 min at 25° C. in 0.2 ml of 50 mM Tris HCl buffer pH 7.4 containing 1 nM [3H]-DPCPX, diluted membranes (50 μg of protein/assay) and at least 6-8 different concentrations of antagonists studied. Non-specific binding was determined in the presence of 10 μM of CHA and this was always ≦10% of the total binding.

A further data set concerns the target T2, human A2A receptors (Homo sapiens, UniProt P29274).
T2 construct: expressed in transfected cells; host or cells: CHO cells
The data set is described as follows: [^3H] SCH58261 binding to human A2A receptors expressed in CHO cells (antagonist radioligand). The conditions noted are these: human A2A, CHO cells, antagonist radioligand; read-out: [^3H] SCH58261 binding to human A2A receptors expressed in CHO cells Ki. The procedure:
(§1) Binding assay methodology for the human data with antagonist radioligands. […] Arch. Pharmacol. 357: 1-9, (1998). The cells were grown adherently and maintained in Dulbecco's Modified Eagles Medium with nutrient mixture F12 (DMEM/F12) without nucleosides, containing 10% fetal calf serum, penicillin (100 U/ml), streptomycin (100 μg/ml), L-glutamine (2 mM) and Geneticin (G418, 0.2 mg/ml) at 37° C. in 5% CO2/95% air. Cells were split 2 or 3 times weekly at a ratio between 1:5 and 1:20. For membrane preparation the culture medium was removed and the cells were washed with PBS and scraped off T75 flasks in ice-cold hypotonic buffer (5 mM Tris HCl, 2 mM EDTA, pH 7.4). The cell suspension was homogenized with Polytron and the homogenate was spun for 10 min at 1,000×g. The supernatant was then centrifuged for 30 min at 100,000×g. The membrane pellet was resuspended in 50 mM Tris HCl buffer pH 7.4 (for A3 adenosine receptors: 50 mM Tris HCl, 10 mM MgCl2, 1 mM EDTA) and incubated with 3 UI/ml of Adenosine deaminase for 30 min at 37° C. Then the suspension was frozen at −80° C. HEK 293 cells transfected with the human recombinant A2B adenosine receptor were obtained from Receptor Biology, Inc. (Beltsville, Md., USA).
Binding of [^3H]-SCH 58261 to CHO cells transfected with the human recombinant A2A adenosine receptors (50 μg of protein/assay) was performed using 0.2 ml 50 mM Tris HCl buffer, 10 mM MgCl2 pH 7.4 and at least 6-8 different concentrations of antagonists studied for an incubation time of 30 min at 25° C.

In another data set the target is T3, human A3 receptors (Homo sapiens, UniProt P0DMS8).
T3 construct: expressed in transfected cells; host or cells: CHO cells
T3 sequence (P0DMS8 1-318): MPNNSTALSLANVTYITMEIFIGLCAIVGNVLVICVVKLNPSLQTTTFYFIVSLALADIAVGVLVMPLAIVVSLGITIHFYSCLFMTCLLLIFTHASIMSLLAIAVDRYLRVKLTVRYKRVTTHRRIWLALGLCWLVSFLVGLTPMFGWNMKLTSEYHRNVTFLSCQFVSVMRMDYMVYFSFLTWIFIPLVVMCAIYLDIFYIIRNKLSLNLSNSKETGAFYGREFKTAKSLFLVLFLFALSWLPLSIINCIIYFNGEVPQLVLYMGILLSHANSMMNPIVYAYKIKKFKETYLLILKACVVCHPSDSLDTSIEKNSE
The data set is described as follows: [^3H] MRE3008F20 binding to human A3 receptors expressed in CHO cells (antagonist radioligand). The settings on record: human A3, CHO cells, antagonist radioligand; read-out: [^3H] MRE3008F20 binding to human A3 receptors expressed in CHO cells Ki. The procedure:
as §1
Binding of [^3H]-MRE 3008F20 to CHO cells transfected with the human recombinant A3 adenosine receptors was performed according to Varani et al., 2000. Competition experiments were carried out in duplicate in a final volume of […] in test tubes containing 1 nM [^3H]-MRE 3008F20, 50 mM Tris HCl buffer, 10 mM MgCl2, 1 mM EDTA pH 7.4 and 100 μl of diluted membranes (50 μg of protein/assay) and at least 8-10 different concentrations of examined antagonists. Incubation time was 120 min at 4° C., according to the results of previous time-course experiments.

For data set [1], the target named is T4, human A1 adenosine receptors (Homo sapiens, UniProt P30542).
T4 sequence (P30542 1-326): T1 sequence (P30542 1-326)
Description: Displacement of [^3H]CHA binding, human A1 adenosine receptors in CHO cells (agonist radioligand).

For data set [2], the target named is T5, human A3 adenosine receptors (Homo sapiens, UniProt P0DMS8).
T5 sequence (P0DMS8 1-318): T3 sequence (P0DMS8 1-318)
The conditions noted are these: for A1/A3: ratio Ki(A1)/Ki(A3), agonist radioligands.

Data set [3] has as its target T6, human A2A adenosine receptors (Homo sapiens, UniProt P29274).
T6 construct: expressed in transfected cells; host or cells: CHO cells
The data set is described as follows: Displacement of [^3H]CGS21680 binding, human A2A adenosine receptors in CHO cells (agonist radioligand). The settings on record: human A2A, CHO cells, [^3H]CGS21680; read-out: Ki(A2A). Displacement of [^3H]CGS21680 binding to human A2A adenosine receptors exp. in CHO cells.

A further data set addresses T7, human hA2B receptors (Homo sapiens, UniProt P29275).
T7 construct: host or cells: HEK 293 cells
T7 sequence (P29275 1-332): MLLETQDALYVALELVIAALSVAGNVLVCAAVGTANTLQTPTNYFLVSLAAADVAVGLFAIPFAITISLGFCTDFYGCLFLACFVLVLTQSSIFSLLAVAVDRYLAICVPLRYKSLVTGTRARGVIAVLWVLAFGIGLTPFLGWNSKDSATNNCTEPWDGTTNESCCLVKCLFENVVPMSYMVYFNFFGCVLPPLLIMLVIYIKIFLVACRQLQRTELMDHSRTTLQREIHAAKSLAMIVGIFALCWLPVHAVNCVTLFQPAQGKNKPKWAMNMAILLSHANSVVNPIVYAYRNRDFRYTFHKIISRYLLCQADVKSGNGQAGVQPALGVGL
Description: [^3H] DPCPX binding to human hA2B receptors expressed in HEK293 cells (antagonist radioligand). The settings on record: human A2B, HEK293 cells, antagonist radioligand; read-out: [^3H] DPCPX binding to human hA2B receptors expressed in HEK293 cells Ki. The procedure:
as §1
Competition experiments of [^3H]-DPCPX to HEK-293 cells transfected with the human recombinant A^2B adenosine receptor were performed for 60 min at 25° C. in 0.1 ml of 50 mM Tris HCl buffer, 10 mM MgCl2, 1 mM EDTA, 0.1 mM benzamidine pH 7.4, 2 IU/ml adenosine deaminase containing 34 nM [^3H]-DPCPX, diluted membranes (20 μg of protein/assay) and at least 6-8 different concentrations of selected compounds.

What is called Ki is a dissociation constant, usually derived from enzyme kinetics or from competition with a known ligand. As a reminder, the melting point is the temperature, or range, at which the solid turns liquid.

T6 sequence (P29274 whole entry): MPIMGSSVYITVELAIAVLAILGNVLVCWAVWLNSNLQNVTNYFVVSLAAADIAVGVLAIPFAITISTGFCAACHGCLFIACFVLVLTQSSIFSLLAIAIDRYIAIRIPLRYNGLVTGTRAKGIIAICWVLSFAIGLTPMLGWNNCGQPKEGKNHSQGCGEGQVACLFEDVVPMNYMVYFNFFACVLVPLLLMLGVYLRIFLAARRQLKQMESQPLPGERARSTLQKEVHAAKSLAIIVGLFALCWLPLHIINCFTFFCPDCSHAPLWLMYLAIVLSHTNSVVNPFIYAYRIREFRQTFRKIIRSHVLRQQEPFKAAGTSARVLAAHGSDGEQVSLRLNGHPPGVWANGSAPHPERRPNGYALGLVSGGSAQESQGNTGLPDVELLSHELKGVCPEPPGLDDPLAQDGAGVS
T2 sequence (P29274 whole entry): as above

Consider `CCNC(=O)[C@H]1O[C@@H](n2cnc3c(NC(=O)Nc4ccc(S(=O)(=O)NC(C)(C)C)cc4)ncnc32)[C@H](O)[C@@H]1O` [Compound 92, 1-Deoxy-1-[6-[[[[4-[N-(1,1-dimethylethyl)aminosulfonyl]phenyl]amino]-carbonyl]amino]-9H-purin-9-yl]-N-ethyl-β-D-ribofuranuronamide], for which the melting point is 185 °C. The Ki on human A1 receptors was > 1000 nM. Besides, on human A2A receptors, the Ki was > 1000 nM. The Ki on human A3 receptors was determined as 330 nM. The same compound returned a Ki in data set [1] of 250 nM. Besides, in data set [2], the Ki came out at 20 nM and the A1/A3 came out at 12.5. Moreover, the Ki in data set [3] was > 1000 nM. Also, the Ki on human hA2B receptors was > 1000 nM.
In turn, `CCNC(=O)[C@H]1O[C@@H](n2cnc3c(NC(=O)Nc4ccc(S(=O)(=O)N5CCOCC5)cc4)ncnc32)C(O)C1O` (stereo partly drawn) [Compound 84, 1-Deoxy-1-[6-[[[[4-[(morpholine-1-yl)sulfonyl]phenyl]amino]carbonyl]amino]-9H-purin-9-yl]-N-ethyl-β-D-ribofuranuronamide] came in with a melting point of 204 to 205 °C. Moreover, the inhibitory constant (Ki) on human A1 receptors is > 1000 nM. For the same compound, on human A2A receptors, the Ki is > 1000 nM. Further, the Ki at human A3 receptors is 198 nM. In data set [1], this compound registered a Ki of 725 nM. For the same compound, in data set [2], the affinity corresponds to a Ki of 20 nM and the A1/A3 is on record as 36.25. In addition, the Ki in data set [3] is > 1000 nM. Moreover, the Ki at human hA2B receptors is > 1000 nM.
Turning to `CCNC(=O)[C@H]1O[C@@H](n2cnc3c(NC(=O)Nc4ccc(S(=O)(=O)NC5CCCC5)cc4)ncnc32)[C@H](O)[C@@H]1O` [Compound 95, 1-Deoxy-1-[6-[[[[4-[N-(cyclopentyl)aminosulfonyl]phenyl]-amino]carbonyl]amino]-9H-purin-9-yl]-N-ethyl-β-D-ribofuranuronamide], the Ki is > 1000 nM at human A1 receptors; > 1000 nM at human A2A receptors; 140 nM on human A3 receptors; 415 nM in data set [1]; 24 nM in data set [2]; > 1000 nM in data set [3]. The Ki at human hA2B receptors is > 1000 nM.
Compound `CCNC(=O)[C@H]1O[C@@H](n2cnc3c(NC(=O)Nc4ccc(S(=O)(=O)NC56CC7CC(CC(C7)C5)C6)cc4)ncnc32)[C@H](O)[C@@H]1O` [Compound 93, 1-Deoxy-1-[6-[[[[4-[N-(adamantan-1-yl)sulfonyl]phenyl]amino]carbonyl]-amino]-9H-purin-9-yl]-N-ethyl-β-D-ribofuranuronamide] yielded a melting point of 192 °C. At human A1 receptors, the Ki is > 1000 nM. On human A2A receptors, the Ki is > 1000 nM. Besides, on human A3 receptors, the Ki was determined as 310 nM. Besides, in data set [1], the Ki came out at 240 nM. In data set [2], the Ki turned out to be 35 nM and the A1/A3 is recorded as 7.5. In data set [3], the Ki is > 1000 nM. At human hA2B receptors, the Ki was > 1000 nM.
Compound `CCNC(=O)[C@H]1O[C@@H](n2cnc3c(NC(=O)Nc4ccc(S(=O)(=O)NCC)cc4)ncnc32)[C@H](O)[C@@H]1O` [Compound 85, 1-Deoxy-1-[6-[[[[4-[N-(ethyl)aminosulfonyl]phenyl]amino]-carbonyl]amino]-9H-purin-9-yl]-N-ethyl-β-D-ribofuranuronamide] yielded a melting point of 180 to 183 °C. On human A1 receptors, the Ki is > 1000 nM. Moreover, the Ki on human A2A receptors was > 1000 nM. For the same compound, the Ki on human A3 receptors was found to be 237 nM. The compound further yielded a Ki in data set [1] of 250 nM. Besides, in data set [2], the affinity, expressed as Ki, was 23 nM and the A1/A3 is given as 10.86. For the same compound, in data set [3], the Ki is > 1000 nM. Further, the Ki at human hA2B receptors is > 1000 nM.
As for `CCCCCNS(=O)(=O)c1ccc(NC(=O)Nc2ncnc3c2ncn3[C@@H]2O[C@H](C(=O)NCC)[C@@H](O)[C@H]2O)cc1` [Compound 87, 1-Deoxy-1-[6-[[[[4-[N-(pentyl)aminosulfonyl]phenyl]-amino]carbonyl]amino]-9H-purin-9-yl]-N-ethyl-β-D-ribofuranuronamide], the melting point came to 199 °C. In addition, the Ki on human A1 receptors is > 1000 nM. The Ki on human A2A receptors is > 1000 nM. The Ki on human A3 receptors is 886 nM. In data set [1], this compound registered a Ki of 445 nM. In data set [2], the Ki came out at 80 nM and the A1/A3 stood at 5.56. Besides, the Ki in data set [3] is > 1000 nM. The Ki on human hA2B receptors is > 1000 nM.
